Measurements published in publication PMC10983001, “Development of Cytotoxic GW7604-Zeise’s Salt Conjugates as Multitarget Compounds with Selectivity for Estrogen Receptor- Positive Tumor Cells” (Journal of Medicinal Chemistry, 2024).

Columns and labels:
[1] = tested on: MCF-7 cells; assay: Hormonal (agonistic) activity: growth stimulation; format: cell-based, human; details: MCF-7, low concentrations (<100 nM), data not shown
Source text: However, both agonistic properties and SERD effects can be excluded.

[2] = molecular target: T1, human recombinant COX-2 (Homo sapiens, UniProt P35354); format: biochemical; details: incubation 10 min
T1 construct: purchased Cayman Chemicals
T1 sequence (P35354 18-604): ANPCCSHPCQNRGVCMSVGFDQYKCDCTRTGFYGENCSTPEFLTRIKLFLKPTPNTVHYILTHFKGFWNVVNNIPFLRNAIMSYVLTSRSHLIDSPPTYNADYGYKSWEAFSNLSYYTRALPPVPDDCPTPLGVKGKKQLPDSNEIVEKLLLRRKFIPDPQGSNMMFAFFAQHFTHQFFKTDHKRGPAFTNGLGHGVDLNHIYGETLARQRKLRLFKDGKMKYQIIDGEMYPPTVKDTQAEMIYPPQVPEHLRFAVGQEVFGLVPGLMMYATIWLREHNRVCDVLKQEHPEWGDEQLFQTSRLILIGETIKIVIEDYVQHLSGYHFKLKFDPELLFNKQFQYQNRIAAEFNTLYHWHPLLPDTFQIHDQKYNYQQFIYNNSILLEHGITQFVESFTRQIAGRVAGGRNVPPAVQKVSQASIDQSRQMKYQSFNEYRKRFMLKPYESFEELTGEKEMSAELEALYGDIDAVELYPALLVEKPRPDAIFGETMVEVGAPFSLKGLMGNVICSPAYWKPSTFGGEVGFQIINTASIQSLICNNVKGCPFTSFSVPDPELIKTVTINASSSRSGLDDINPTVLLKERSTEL
Description: (§1) COX-1/2 inhibition was evaluated in an established assay on isolated isoenzymes. After incubation with the drugs (concentration: 20 μM) for 10 min, the remaining COX activity was measured by an enzyme-linked immunosorbent assay (ELISA).
(§2) The incubation time of the compounds with the respective isoenzymes was exactly 10 min. The results are presented as the mean ± SEM of three independent experiments, with two replicates of each experiment. […] Graphs were drawn using GraphPad Prism 8.0.

[3] = molecular target: T2, human recombinant COX-1 (Homo sapiens, UniProt P23219); format: biochemical; details: incubation 10 min
T2 construct: purchased Cayman Chemicals
T2 sequence (P23219 24-599): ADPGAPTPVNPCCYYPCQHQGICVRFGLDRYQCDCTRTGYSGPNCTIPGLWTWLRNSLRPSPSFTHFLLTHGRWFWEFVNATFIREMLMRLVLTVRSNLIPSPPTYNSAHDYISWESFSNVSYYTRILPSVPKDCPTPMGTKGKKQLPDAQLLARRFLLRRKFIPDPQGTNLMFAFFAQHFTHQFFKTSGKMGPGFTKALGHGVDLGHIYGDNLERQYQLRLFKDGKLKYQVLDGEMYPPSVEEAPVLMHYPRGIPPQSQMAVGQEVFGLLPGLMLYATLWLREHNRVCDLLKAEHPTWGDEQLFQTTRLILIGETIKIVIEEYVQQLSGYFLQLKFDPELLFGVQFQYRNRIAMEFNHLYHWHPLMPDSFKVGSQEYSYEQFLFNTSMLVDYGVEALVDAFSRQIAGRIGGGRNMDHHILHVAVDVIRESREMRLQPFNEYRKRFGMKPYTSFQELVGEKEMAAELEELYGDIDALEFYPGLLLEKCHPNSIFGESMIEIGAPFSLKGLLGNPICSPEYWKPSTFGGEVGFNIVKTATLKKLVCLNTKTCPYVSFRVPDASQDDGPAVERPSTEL
Description: as §1, §2

[4] = 30 μM, DMEM + 10% FCS, 37 °C, dark
Description: After protein precipitation with ice-cold methanol (MeOH), the compounds remaining in solution were analyzed by HPLC and electrospray ionization high-resolution mass spectrometry (ESI-HR-MS).
The solution was then incubated for 4 h at 37 °C in the dark. Proteins were precipitated upon addition of 33 mL of ice-cold MeOH, and the mixture was stored for 2 h at −20 °C. The supernatant was then separated by centrifugation (3000 rpm), collected, and dried by lyophilization. The lyophilizate was extracted three times with 5 mL of MeOH and finally dried under reduced pressure. The residue was taken up in 1 mL of HPLC-grade MeOH, and 30 μL thereof was analyzed by HPLC and ESI-HR-MS.

[5] = molecular target: T3, ERα ligand-binding domain (Homo sapiens, UniProt P03372); assay: TR-FRET ligand binding assay, isolated LBD of ERα
T3 construct: purchased Invitrogen
T3 sequence (P03372 311-547 limits assumed): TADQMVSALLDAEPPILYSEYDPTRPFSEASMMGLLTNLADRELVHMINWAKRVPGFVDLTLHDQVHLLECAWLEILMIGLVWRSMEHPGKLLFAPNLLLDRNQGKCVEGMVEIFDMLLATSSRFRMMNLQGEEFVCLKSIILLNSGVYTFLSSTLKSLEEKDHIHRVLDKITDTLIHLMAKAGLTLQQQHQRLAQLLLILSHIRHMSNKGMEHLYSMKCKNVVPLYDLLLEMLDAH
Description: A modified LanthaScreen TR-FRET alpha/beta assay was performed, according to the manufacturer’s protocol (Invitrogen, Carlsbad, […]), to determine the binding affinity to the isolated LBD. […] Measurements were carried out on a multimode plate reader, Tecan Spark (Tecan, Männedorf, Switzerland). Calculations and visualization were performed with GraphPad Prism 8.0 (GraphPad Software, San Diego, CA, USA).

## CCC(=C(c1ccc(O)cc1)c1ccc(C=CC(=O)OCCC[CH]2[CH2][Pt-]2([Cl])([Cl])[Cl])cc1)c1ccccc1.[K+] (mixture of isomers) [GW7604-Pent-PtCl3, Potassium trichlorido[η^2-(pent-4-en-1-yl (E)-3-(4-((E/Z)-1-(4-hydroxyphenyl)-2-phenylbut-1-en-1-yl)phenyl)acrylate)]platinate(II)]
[1]
  agonistic effect: stimulation of growth: neither stimulated the growth
[2]; 0.1–20 μM
  IC50: 1.82 µM
[2]
  concentration at which maximum activity is reached, COX-2: 10 µM
[3]; 0.1–20 μM
  IC50: 1.7 µM
[3]
  concentration at which maximum activity is reached, COX-1: 10 µM
[4]
  time to complete degradation in cell culture medium: ≤ 4 h
[5]; RBA(E2) = 100%
  RBA (ERα): 7.29%
[5]; read-out: IC50 (ERα), displacement from the LBS
  IC50: 0.00481 µM
